According to PubChem BioAssay (NCI):
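Where inhibition never reached the appropriate level, the endpoint shown equals the highest concentration tested. Otherwise, values were interpolated linearly from a five-concentration, 48-hour dose response in 96-well plates. TGI marks complete inhibition of growth.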

Columns and labels:
Assay in all cases: NCI anticancer screen, dose series, 48 h
786-0 renal = tested on: 786-0 renal
A549 NSCLC = tested on: A549 NSCLC
EKVX NSCLC = tested on: EKVX NSCLC
HCC-2998 colon = tested on: HCC-2998 colon
HCT-116 colon = tested on: HCT-116 colon
HOP-92 NSCLC = tested on: HOP-92 NSCLC
HT29 colon = tested on: HT29 colon
IGROV1 ovarian = tested on: IGROV1 ovarian
M14 melanoma = tested on: M14 melanoma
NCI/ADR-RES ovarian = tested on: NCI/ADR-RES ovarian
OVCAR-8 ovarian = tested on: OVCAR-8 ovarian
RXF 393 renal = tested on: RXF 393 renal
SF-268 CNS = tested on: SF-268 CNS
SF-539 CNS = tested on: SF-539 CNS
SK-MEL-5 melanoma = tested on: SK-MEL-5 melanoma
SNB-75 CNS = tested on: SNB-75 CNS
T-47D breast = tested on: T-47D breast
TK-10 renal = tested on: TK-10 renal
U251 CNS = tested on: U251 CNS
UACC-257 melanoma = tested on: UACC-257 melanoma

Row | Structure (SMILES) | TGI (786-0 renal) [µM] | TGI (A549 NSCLC) [µM] | TGI (EKVX NSCLC) [µM] | TGI (HCC-2998 colon) [µM] | TGI (HCT-116 colon) [µM] | TGI (HOP-92 NSCLC) [µM] | TGI (HT29 colon) [µM] | TGI (IGROV1 ovarian) [µM] | TGI (M14 melanoma) [µM] | TGI (NCI/ADR-RES ovarian) [µM] | TGI (OVCAR-8 ovarian) [µM] | TGI (RXF 393 renal) [µM] | TGI (SF-268 CNS) [µM] | TGI (SF-539 CNS) [µM] | TGI (SK-MEL-5 melanoma) [µM] | TGI (SNB-75 CNS) [µM] | TGI (T-47D breast) [µM] | TGI (TK-10 renal) [µM] | TGI (U251 CNS) [µM] | TGI (UACC-257 melanoma) [µM]
1 | O=Cc1c2ccccc2n2ccc3c4ccccc4[nH]c3c12 | > 10 | > 10 | > 10 | > 10 | > 10 | > 10 | > 10 | > 10 | > 10 | > 10 | > 10 | > 10 | > 10 | > 10 | > 10 | > 10 | > 10 | > 10 | > 10 | > 10
2 | CC(C)c1nc2cc(C(F)(F)F)ccc2[nH]c1=O | > 100 | > 100 | > 100 | > 100 | > 100 | > 100 | > 100 | > 100 | > 100 | > 100 | > 100 | > 100 | > 100 | > 100 | > 100 | > 100 | > 100 | > 100 | > 100 | > 100
3 | CC(=O)NNc1nc(C)c(C(/C=C/c2ccc([N+](=O)[O-])cc2)=N/N)s1 | > 100 | > 100 | > 100 | > 100 | > 100 | > 100 | > 100 | > 100 | > 100 | > 100 | > 100 | > 100 | > 100 | > 100 | > 100 | > 100 | > 100 | > 100 | > 100 | > 100
4 | COc1cc(-c2cc(=O)c3c(OC)c(OC)c(OC)cc3o2)c(OC)c(OC)c1OC | > 75 | > 75 | > 75 | > 75 | > 75 | > 75 | > 75 | > 75 | > 75 | > 75 | > 75 | > 75 | > 75 | > 75 | > 75 | > 75 | > 75 | > 75 | > 75 | > 75
5 | COC(=O)CC1C(COC(C)=O)OC(n2cc(C)c(=O)[nH]c2=O)C1OC(C)=O (stereo not given) | > 100 | > 100 | > 100 | > 100 | > 100 | > 100 | > 100 | > 100 | > 100 | > 100 | > 100 | > 100 | > 100 | > 100 | > 100 | > 100 | > 100 | > 100 | > 100 | > 100
6 | Cc1ccc(O)c(C(c2ccc([N+](=O)[O-])cc2)c2cc(C)ccc2O)c1 | 44.5 | 25.6 | 34.3 | 9.66 | 40.6 | 28.7 | 30 | 25.2 | 26.7 | 28.7 | 30.7 | 26 | 22 | 32.1 | > 100 | 15.5 | 34.7 | 30.4 | 48.8 | 28.4
7 | CC(C)CC[C@H](O)[C@@H](C)[C@H]1[C@@H](OC2OC(C)C(O)C(O)C2O)C[C@H]2[C@@H]3CC=C4C[C@@H](O)CC[C@]4(C)[C@H]3[C@@H](O)C[C@]12C (stereo not given in full) | > 100 | > 100 | > 100 | > 100 | > 100 | 6.7 | > 100 | 40.4 | > 23.4 | > 100 | > 100 | > 100 | > 100 | 0.578 | > 58 | 59.1 | > 100 | > 100 | > 100 | 2.91
8 | CC(C)C[C@H](NC(=O)[C@H](Cc1ccccc1)NC(=O)CCc1ccccc1)B(O)O | < 0.01 | 0.0919 | < 0.0216 | < 0.01 | < 0.01 | < 0.01 | < 0.01 | < 0.01 | < 0.01 | 1.82 | < 0.01 | < 0.01 | < 0.01 | < 0.01 | < 0.01 | < 0.01 | < 0.01 | < 0.01 | < 0.0112 | < 0.01
9 | Cc1ccc(Cc2n[nH]c(=O)n2/N=C\CC/C=N\n2c(Cc3ccc(C)cc3)n[nH]c2=O)cc1 | 41 | > 100 | > 100 | > 100 | > 100 | 76.1 | > 100 | > 100 | > 100 | 49.9 | 39.9 | 65.3 | 50.9 | 24.9 | > 100 | 34.7 | > 100 | > 100 | 53.7 | > 100
